Data published in ChEMBL document CHEMBL1154556, “Siamenol, a new carbazole alkaloid from Murraya siamensis” (J Nat Prod, 2000).
In brackets after ≈: the same amount, converted by molar mass. Activity calls are given as the source filed them. The rule behind the calls is not given here.

Columns and labels:
[1] = tested on: Human immunodeficiency virus; experiment: Antiviral activity against HIV assessed as protection against viral infection by XTT-tetrazolium method; format: functional
[2] = tested on: Human immunodeficiency virus; experiment: Antiviral activity against HIV; format: functional, organism-based

Row | EC50 ([2]; Human immunodeficiency virus 1) [µg/mL] | IC50 ([2]; Human immunodeficiency virus 1) [µg/mL] | Structure (SMILES) | Activity [1] [%] | Activity [2]
1 | 2.6 (≈ 9.8 µM) |  | CC(C)=CCc1cc2c(cc1O)[nH]c1ccc(C)cc12 [SIAMENOL] | 50 | 
2 | 8.6 (≈ 25.8 µM) | 23 (≈ 69 µM) | CC(C)=CCC/C(C)=C/Cc1c(O)c(C)cc2c1[nH]c1ccccc12 [MAHANIMBILOL] |  | 
3 |  |  | CC(C)=CCCC1(C)C=Cc2c(c(C)cc3c2[nH]c2ccccc23)O1 (stereo not given) |  | inactive
